Experimental data reported in publication PMC12362783 (Advanced Science, 2025).

Legend:
MDA‐MB‐231 = test: Cell growth inhibition, CellTiter‐Glo (CTG); format: cell-based; conditions: Homo sapiens, MDA-MB-231, 120 h, read-out: IC50 MDA‐MB‐231; CTG, 5 days, n = 3
Experimental: (§1) All cells were grown in a humidified incubator at 37 °C and 5% CO2.
(§2) […] […] Relative viability was calculated by normalizing the raw luminescence counts of the treated groups to those of the DMSO control groups. IC₅₀ values were calculated using sigmoidal dose‐response curve fitting with GraphPad Prism 9.0 software.

MDA‐MB‐468 = test: Cell growth inhibition, CellTiter‐Glo (CTG); format: cell-based; conditions: Homo sapiens, MDA-MB-468, 120 h; CTG, 5 days, n = 3
Experimental: as §1, §2

ATR = target: T1, ATR (Homo sapiens, UniProt Q13535); test: ATR kinase inhibition, Mobility Shift Assay; format: biochemical; conditions: n = 3, mean ± SD
T1 construct: purchased Eurofins 14-953
Experimental: The in vitro ATR kinase inhibitory activities were determined by ChemPartner Co., Ltd. (Shanghai, China) using the Mobility Shift Assay. The tested compound was dissolved with DMSO and diluted to 1000/3 × of the final desired highest inhibitor concentration in the reaction. […] The assay wells were incubated at 28 °C for 4 h.

PARP1 = PARP1 (Homo sapiens, UniProt P09874); test: PARP enzymatic inhibition ELISA (PARP1); format: biochemical; conditions: for IC50: n = 3, mean ± SD
Experimental: The PARP activity assay was performed by ChemPartner (Shanghai, China). Each well was precoated with histone (final conc.: 100 ng mL^−1) diluted in PBS buffer (contains 10 mmol L^−1 NaH2PO4 and 150 mmol L^−1 NaCl, pH 7.4) by incubation at 4 °C overnight. […] The reaction was initiated by the addition of 10 µL of PARP (final conc.: 0.007 nM/well) at room temperature for 60 min. Add 20 µL of anti‐Poly/Mono‐ADP Ribose Rabbit mAb. Incubate for 1.5 h at room temperature and wash the plate three times using PBST buffer. […] Incubate for 1 h at room temperature and wash the plate three times using PBST buffer. Add 25 µL Femto‐ECL Substrate A and Femto‐ECL Substrate B (1:1) mix. Immediately read chemiluminescence on Envision (Revvity, USA).

MDA‐MB‐436 = test: Cell growth inhibition, CellTiter‐Glo (CTG); format: cell-based; conditions: Homo sapiens, MDA-MB-436; @5.0 µM; read-out: MDA‐MB‐436 inhibitory rate at certain concentration
Experimental: as §1
Growth viability was determined by the CellTiter‐Glo luminescent viability assay (Promega) 5 days after drug treatment. Cell viability was measured immediately after dosing (Day 0) and after 5 days of incubation using CellTiter‐Glo (CTG, Promega, G7573). Relative viability was calculated by normalizing the raw luminescence counts of the treated groups to those of the DMSO control groups. IC₅₀ values were calculated using sigmoidal dose‐response curve fitting with GraphPad Prism 9.0 software.

T1 sequence (Q13535 whole entry): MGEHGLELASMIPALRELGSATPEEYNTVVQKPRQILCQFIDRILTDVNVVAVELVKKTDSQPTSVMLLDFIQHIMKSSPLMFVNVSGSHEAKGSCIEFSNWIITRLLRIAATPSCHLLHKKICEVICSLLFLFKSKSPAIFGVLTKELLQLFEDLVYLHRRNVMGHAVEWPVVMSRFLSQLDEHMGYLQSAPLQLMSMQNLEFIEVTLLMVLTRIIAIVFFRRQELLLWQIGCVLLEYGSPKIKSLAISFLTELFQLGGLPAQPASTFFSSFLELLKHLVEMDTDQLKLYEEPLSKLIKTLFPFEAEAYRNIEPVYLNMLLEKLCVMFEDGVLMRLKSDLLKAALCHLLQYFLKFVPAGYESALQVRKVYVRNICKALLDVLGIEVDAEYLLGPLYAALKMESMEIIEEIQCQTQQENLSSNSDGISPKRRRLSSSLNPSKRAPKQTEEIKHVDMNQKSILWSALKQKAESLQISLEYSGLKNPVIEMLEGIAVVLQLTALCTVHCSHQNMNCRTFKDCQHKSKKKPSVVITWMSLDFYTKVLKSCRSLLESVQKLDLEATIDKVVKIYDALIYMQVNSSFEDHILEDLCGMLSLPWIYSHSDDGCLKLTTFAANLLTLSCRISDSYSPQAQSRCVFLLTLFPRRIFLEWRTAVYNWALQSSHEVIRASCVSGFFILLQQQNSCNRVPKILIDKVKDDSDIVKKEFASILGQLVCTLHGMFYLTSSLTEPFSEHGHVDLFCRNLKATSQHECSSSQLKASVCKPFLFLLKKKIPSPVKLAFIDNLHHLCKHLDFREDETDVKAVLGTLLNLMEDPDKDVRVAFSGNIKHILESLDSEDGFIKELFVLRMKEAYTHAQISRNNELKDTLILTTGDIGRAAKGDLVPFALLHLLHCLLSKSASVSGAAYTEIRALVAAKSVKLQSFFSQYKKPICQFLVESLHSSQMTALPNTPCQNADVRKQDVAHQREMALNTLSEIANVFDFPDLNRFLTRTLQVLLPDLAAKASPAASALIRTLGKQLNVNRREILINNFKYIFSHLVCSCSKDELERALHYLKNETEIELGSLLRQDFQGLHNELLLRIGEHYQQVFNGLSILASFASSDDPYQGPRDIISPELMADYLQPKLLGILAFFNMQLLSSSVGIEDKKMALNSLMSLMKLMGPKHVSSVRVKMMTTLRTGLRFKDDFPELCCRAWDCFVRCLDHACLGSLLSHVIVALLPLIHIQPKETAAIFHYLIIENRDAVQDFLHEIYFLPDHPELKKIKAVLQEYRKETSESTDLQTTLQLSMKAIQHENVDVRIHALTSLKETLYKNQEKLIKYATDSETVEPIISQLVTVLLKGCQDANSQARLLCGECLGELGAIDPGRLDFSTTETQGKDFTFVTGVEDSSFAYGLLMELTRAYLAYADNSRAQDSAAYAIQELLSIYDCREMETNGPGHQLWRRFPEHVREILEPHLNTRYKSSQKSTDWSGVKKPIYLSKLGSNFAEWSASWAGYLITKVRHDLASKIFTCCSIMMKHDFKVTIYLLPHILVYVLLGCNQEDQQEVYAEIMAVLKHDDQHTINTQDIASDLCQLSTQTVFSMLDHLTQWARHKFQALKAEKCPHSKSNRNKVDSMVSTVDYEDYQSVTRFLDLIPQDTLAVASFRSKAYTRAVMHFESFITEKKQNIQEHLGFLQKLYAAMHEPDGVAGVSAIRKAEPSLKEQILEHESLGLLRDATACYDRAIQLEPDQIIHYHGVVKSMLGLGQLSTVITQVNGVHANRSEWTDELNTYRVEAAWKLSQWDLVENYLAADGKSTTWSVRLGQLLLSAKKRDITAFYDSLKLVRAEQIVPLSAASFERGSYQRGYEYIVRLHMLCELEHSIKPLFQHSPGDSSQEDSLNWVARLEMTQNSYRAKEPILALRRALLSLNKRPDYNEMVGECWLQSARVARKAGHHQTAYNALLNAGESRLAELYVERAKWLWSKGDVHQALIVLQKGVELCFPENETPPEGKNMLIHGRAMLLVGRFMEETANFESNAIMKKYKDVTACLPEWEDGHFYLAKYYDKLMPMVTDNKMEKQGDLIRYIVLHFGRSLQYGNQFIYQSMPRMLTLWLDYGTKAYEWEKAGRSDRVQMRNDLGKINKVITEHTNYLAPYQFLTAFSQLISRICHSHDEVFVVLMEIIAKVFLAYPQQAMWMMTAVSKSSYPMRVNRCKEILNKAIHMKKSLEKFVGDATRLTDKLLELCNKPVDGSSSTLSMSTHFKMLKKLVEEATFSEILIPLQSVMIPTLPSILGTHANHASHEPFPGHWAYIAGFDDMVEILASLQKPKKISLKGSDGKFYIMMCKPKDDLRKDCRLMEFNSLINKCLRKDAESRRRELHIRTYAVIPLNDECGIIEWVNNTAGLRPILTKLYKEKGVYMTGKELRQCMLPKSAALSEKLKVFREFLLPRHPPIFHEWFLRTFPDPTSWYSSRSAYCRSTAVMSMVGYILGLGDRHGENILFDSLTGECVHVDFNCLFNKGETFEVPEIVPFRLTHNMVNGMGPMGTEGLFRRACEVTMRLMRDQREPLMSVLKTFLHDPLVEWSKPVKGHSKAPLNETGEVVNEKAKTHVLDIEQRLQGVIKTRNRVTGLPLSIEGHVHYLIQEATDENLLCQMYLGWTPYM
T1 sequence (Q8WXE1 whole entry partner): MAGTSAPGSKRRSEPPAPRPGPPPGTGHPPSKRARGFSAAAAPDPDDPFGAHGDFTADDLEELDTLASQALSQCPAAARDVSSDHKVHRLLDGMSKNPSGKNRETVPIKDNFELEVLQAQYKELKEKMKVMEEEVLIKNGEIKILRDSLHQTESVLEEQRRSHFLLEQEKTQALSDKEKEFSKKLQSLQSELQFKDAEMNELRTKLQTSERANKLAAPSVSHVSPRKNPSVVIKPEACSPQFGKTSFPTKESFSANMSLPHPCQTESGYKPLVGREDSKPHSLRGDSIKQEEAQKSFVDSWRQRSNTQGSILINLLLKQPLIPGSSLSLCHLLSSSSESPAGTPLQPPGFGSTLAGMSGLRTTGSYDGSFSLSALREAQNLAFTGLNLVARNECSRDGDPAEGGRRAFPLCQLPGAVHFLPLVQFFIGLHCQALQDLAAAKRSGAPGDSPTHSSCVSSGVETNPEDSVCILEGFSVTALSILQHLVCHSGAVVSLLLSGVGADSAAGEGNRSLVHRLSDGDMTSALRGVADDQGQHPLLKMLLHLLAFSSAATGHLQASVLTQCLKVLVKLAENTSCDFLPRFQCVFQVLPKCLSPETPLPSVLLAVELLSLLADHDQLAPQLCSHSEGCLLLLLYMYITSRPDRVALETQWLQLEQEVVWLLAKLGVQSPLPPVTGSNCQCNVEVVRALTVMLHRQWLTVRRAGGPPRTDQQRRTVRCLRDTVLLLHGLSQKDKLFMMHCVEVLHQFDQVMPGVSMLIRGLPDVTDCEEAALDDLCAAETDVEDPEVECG
Sequence of PARP1 (P09874 whole entry): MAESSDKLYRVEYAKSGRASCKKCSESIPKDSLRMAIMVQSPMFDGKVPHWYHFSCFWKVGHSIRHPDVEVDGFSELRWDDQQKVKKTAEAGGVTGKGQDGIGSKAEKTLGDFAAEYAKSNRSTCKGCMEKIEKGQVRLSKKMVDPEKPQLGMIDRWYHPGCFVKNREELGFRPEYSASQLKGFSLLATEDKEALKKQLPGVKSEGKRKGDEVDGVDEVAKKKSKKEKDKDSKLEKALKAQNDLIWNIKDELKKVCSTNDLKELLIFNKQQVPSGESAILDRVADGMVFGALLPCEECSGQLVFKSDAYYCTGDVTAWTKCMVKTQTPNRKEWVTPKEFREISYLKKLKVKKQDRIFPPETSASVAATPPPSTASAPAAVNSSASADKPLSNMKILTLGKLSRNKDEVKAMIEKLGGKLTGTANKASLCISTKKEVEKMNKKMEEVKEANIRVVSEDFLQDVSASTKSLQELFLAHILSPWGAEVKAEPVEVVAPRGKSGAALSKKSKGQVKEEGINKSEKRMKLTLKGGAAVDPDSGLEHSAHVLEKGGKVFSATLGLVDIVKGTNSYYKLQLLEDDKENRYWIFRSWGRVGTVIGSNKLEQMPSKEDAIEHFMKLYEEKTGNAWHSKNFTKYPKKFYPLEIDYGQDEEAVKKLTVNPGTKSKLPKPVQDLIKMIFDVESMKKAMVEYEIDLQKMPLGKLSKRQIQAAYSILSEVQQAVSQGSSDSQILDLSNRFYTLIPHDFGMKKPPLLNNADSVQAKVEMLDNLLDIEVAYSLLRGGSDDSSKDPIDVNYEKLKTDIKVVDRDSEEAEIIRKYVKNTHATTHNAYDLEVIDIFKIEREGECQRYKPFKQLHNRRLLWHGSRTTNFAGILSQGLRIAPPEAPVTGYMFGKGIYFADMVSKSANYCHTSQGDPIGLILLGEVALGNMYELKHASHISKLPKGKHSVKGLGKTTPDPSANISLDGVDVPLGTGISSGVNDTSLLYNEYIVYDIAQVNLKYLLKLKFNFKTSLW

Row | Structure (SMILES) | IC50 (MDA‐MB‐231) [µM] | IC50 (MDA‐MB‐468) [nM] | IC50 (ATR) [nM] | IC50 (PARP1) [nM] | inhibition at 5 µM (MDA‐MB‐436) [%] | inhibition at 0.02 µM (PARP1; @ 20 nM, read-out: PARP1 inhibitory rate at certain concentration) [%]
1 | C[C@@H]1COCCN1c1cc(C2(NC(=O)c3ccc(C(=O)N4CCN(C(=O)c5cc(Cc6n[nH]c(=O)c7ccccc67)ccc5F)CC4)nc3)CC2)nc(-c2ccnc3[nH]ccc23)n1 [Compound A9, (R)‐6‐(4‐(2‐fluoro‐5‐((4‐oxo‐3,4‐dihydrophthalazin‐1‐yl)methyl)benzoyl)piperazine‐1‐carbonyl)‐N‐(1‐(6‐(3‐methylmorpholino)‐2‐(1H‐pyrrolo[2,3‐b]pyridin‐4‐yl)pyrimidin‐4‐yl)cyclopropyl)nicotinamide] | > 50 | 750 ± 160 | 32 ± 9.3 | 0.6 ± 0.06 |  | 
2 | C[C@@H]1COCCN1c1cc(C2(N)CC2)nc(-c2ccnc3[nH]ccc23)n1 [Compound 23] | 40.7 ± 1.36 | > 50000 |  |  | 20.5 | 
3 | C[C@@H]1COCCN1c1cc(C2(NC(=O)CNC(=O)c3cc(Cc4n[nH]c(=O)c5ccccc45)ccc3F)CC2)nc(-c2ccnc3[nH]ccc23)n1 [Compound A2, (R)‐2‐fluoro‐N‐(2‐((1‐(6‐(3‐methylmorpholino)‐2‐(1H‐pyrrolo [2,3‐b]pyridin‐4‐yl)pyrimidin‐4‐yl)cyclopropyl)amino)‐2‐oxoethyl)‐5‐((4‐oxo‐3,4‐dihydrophthalazin‐1‐yl)methyl)benzamide] | 28.4 ± 1.65 | > 50000 | 118 ± 14 | 12 ± 2.8 |  | 
4 | C[C@@H]1COCCN1c1cc(CNC(=O)c2ccc(CN3CCN(C(=O)c4cc(Cc5n[nH]c(=O)c6ccccc56)ccc4F)CC3)cc2)nc(-c2ccnc3[nH]ccc23)n1 [Compound B12, (R)‐4‐((4‐(2‐fluoro‐5‐((4‐oxo‐3,4‐dihydrophthalazin‐1‐yl)methyl)benzoyl)piperazin‐1‐yl)methyl)‐N‐((6‐(3‐methylmorpholino)‐2‐(1H‐pyrrolo[2,3‐b]pyridin‐4‐yl)pyrimidin‐4‐yl)methyl)benzamide] | > 50 | 2830 ± 60 | 37 ± 4.2 | 2 ± 0.3 |  | 
5 | C[C@@H]1COCCN1c1cc(C2(NC(=O)c3ccc(N4CCN(C(=O)c5cc(Cc6n[nH]c(=O)c7ccccc67)ccc5F)CC4)cc3)CC2)nc(-c2ccnc3[nH]ccc23)n1 [Compound A11, (R)‐4‐(4‐(2‐fluoro‐5‐((4‐oxo‐3,4‐dihydrophthalazin‐1‐yl)methyl)benzoyl)piperazin‐1‐yl)‐N‐(1‐(6‐(3‐methylmorpholino)‐2‐(1H‐pyrrolo[2,3‐b]pyridin‐4‐yl)pyrimidin‐4‐yl)cyclopropyl)benzamide] | > 50 | 570 ± 20 | 292 ± 13.9 | 2.3 ± 0.5 |  | 
6 | C[C@@H]1COCCN1c1cc(C2(NC(=O)c3ccc(CN4CCN(C(=O)c5cc(Cc6n[nH]c(=O)c7ccccc67)ccc5F)CC4)cc3)CC2)nc(-c2ccnc3[nH]ccc23)n1 [Compound A10, (R)‐4‐((4‐(2‐fluoro‐5‐((4‐oxo‐3,4‐dihydrophthalazin‐1‐yl)methyl)benzoyl)piperazin‐1‐yl)methyl)‐N‐(1‐(6‐(3‐methylmorpholino)‐2‐(1H‐pyrrolo[2,3‐b]pyridin‐4‐yl)pyrimidin‐4‐yl)cyclopropyl)benzamide] | > 50 | > 50000 | 185 ± 16.3 | 19.3 ± 2.9 |  | 
7 | C[C@@H]1COCCN1c1cc(C2(NC(=O)CCCNC(=O)c3cc(Cc4n[nH]c(=O)c5ccccc45)ccc3F)CC2)nc(-c2ccnc3[nH]ccc23)n1 [Compound A4, (R)‐2‐fluoro‐N‐(4‐((1‐(6‐(3‐methylmorpholino)‐2‐(1H‐pyrrolo[2,3‐b]pyridin‐4‐yl)pyrimidin‐4‐yl)cyclopropyl)amino)‐4‐oxobutyl)‐5‐((4‐oxo‐3,4‐dihydrophthalazin‐1‐yl)methyl)benzamide] | > 50 | 3080 ± 80 | > 500 | 3.4 |  | 
8 | C[C@@H]1COCCN1c1cc(C2(NC(=O)CCNC(=O)c3cc(Cc4n[nH]c(=O)c5ccccc45)ccc3F)CC2)nc(-c2ccnc3[nH]ccc23)n1 [Compound A3, (R)‐2‐fluoro‐N‐(3‐((1‐(6‐(3‐methylmorpholino)‐2‐(1H‐pyrrolo [2,3‐b]pyridin‐4‐yl)pyrimidin‐4‐yl)cyclopropyl)amino)‐3‐oxopropyl)‐5‐((4‐oxo‐3,4‐dihydrophthalazin‐1‐yl)methyl)benzamide] | > 50 | 27300 ± 2340 | > 500 |  |  | 31.8 ± 2.4
9 | C[C@@H]1COCCN1c1cc(CNC(=O)c2ccc(C(=O)N3CCN(C(=O)c4cc(Cc5n[nH]c(=O)c6ccccc56)ccc4F)CC3)nc2)nc(-c2ccnc3[nH]ccc23)n1 [Compound B10, (R)‐6‐(4‐(2‐fluoro‐5‐((4‐oxo‐3,4‐dihydrophthalazin‐1‐yl)methyl)benzoyl)piperazine‐1‐carbonyl)‐N‐((6‐(3‐methylmorpholino)‐2‐(1H‐pyrrolo[2,3‐b]pyridin‐4‐yl)pyrimidin‐4‐yl)methyl) nicotinamide] | > 50 | 1700 ± 350 | 19 ± 1.2 | 0.61 ± 0.15 |  | 
10 | C[C@@H]1COCCN1c1cc(C2(NS(=O)(=O)c3ccc(C(=O)N4CCN(C(=O)c5cc(Cc6n[nH]c(=O)c7ccccc67)ccc5F)CC4)cc3)CC2)nc(-c2ccnc3[nH]ccc23)n1 [Compound A8, (R)‐4‐(4‐(2‐fluoro‐5‐((4‐oxo‐3,4‐dihydrophthalazin‐1‐yl)methyl)benzoyl)piperazine‐1‐carbonyl)‐N‐(1‐(6‐(3‐methylmorpholino)‐2‐(1H‐pyrrolo[2,3‐b]pyridin‐4‐yl)pyrimidin‐4‐yl)cyclopropyl)benzenesulfonamide] | > 50 | 620 ± 60 | 1320 ± 189 | 0.75 ± 0.27 |  | 
11 | C[C@@H]1COCCN1c1cc(CNS(=O)(=O)c2ccc(C(=O)N3CCN(C(=O)c4cc(Cc5n[nH]c(=O)c6ccccc56)ccc4F)CC3)cc2)nc(-c2ccnc3[nH]ccc23)n1 [Compound B9, (R)‐4‐(4‐(2‐fluoro‐5‐((4‐oxo‐3,4‐dihydrophthalazin‐1‐yl)methyl)benzoyl)piperazine‐1‐carbonyl)‐N‐((6‐(3‐methylmorpholino)‐2‐(1H‐pyrrolo[2,3‐b]pyridin‐4‐yl)pyrimidin‐4‐yl)methyl) benzenesulfonamide] | > 50 | 6880 ± 630 | 205 ± 13.1 | 0.64 ± 0.21 |  | 
12 | C[C@@H]1COCCN1c1cc(CNC(=O)c2ccc(C(=O)N3CCN(C(=O)c4cc(Cc5n[nH]c(=O)c6ccccc56)ccc4F)CC3)cn2)nc(-c2ccnc3[nH]ccc23)n1 [Compound B11, (R)‐5‐(4‐(2‐fluoro‐5‐((4‐oxo‐3,4‐dihydrophthalazin‐1‐yl)methyl)benzoyl)piperazine‐1‐carbonyl)‐N‐((6‐(3‐methylmorpholino)‐2‐(1H‐pyrrolo[2,3‐b]pyridin‐4‐yl)pyrimidin‐4‐yl)methyl) picolinamide] | > 50 | 480 ± 30 | 31.1 ± 4.7 | 1 ± 0.13 |  | 
13 | C[C@@H]1COCCN1c1cc(CNC(=O)c2cnc(N3CCN(C(=O)c4cc(Cc5n[nH]c(=O)c6ccccc56)ccc4F)CC3)nc2)nc(-c2ccnc3[nH]ccc23)n1 [Compound B14, (R)‐2‐(4‐(2‐fluoro‐5‐((4‐oxo‐3,4‐dihydrophthalazin‐1‐yl)methyl)benzoyl)piperazin‐1‐yl)‐N‐((6‐(3‐methylmorpholino)‐2‐(1H‐pyrrolo[2,3‐b]pyridin‐4‐yl)pyrimidin‐4‐yl)methyl)pyramidine‐5‐carboxamide] | > 50 | 90 ± 10 | 23 ± 2.1 | 1.2 ± 0.4 |  | 
14 | C[C@@H]1COCCN1c1cc(CNC(=O)c2ccc(N3CCN(C(=O)c4cc(Cc5n[nH]c(=O)c6ccccc56)ccc4F)CC3)cc2)nc(-c2ccnc3[nH]ccc23)n1 [Compound B13, (R)‐4‐(4‐(2‐fluoro‐5‐((4‐oxo‐3,4‐dihydrophthalazin‐1‐yl)methyl)benzoyl)piperazin‐1‐yl)‐N‐((6‐(3‐methylmorpholino)‐2‐(1H‐pyrrolo[2,3‐b]pyridin‐4‐yl)pyrimidin‐4‐yl)methyl)benzamide] | > 50 | 990 ± 60 | 22 ± 1.7 | 1.3 ± 0.6 |  | 
15 | C[C@@H]1COCCN1c1cc(C2(NC(=O)c3cnc(N4CCN(C(=O)c5cc(Cc6n[nH]c(=O)c7ccccc67)ccc5F)CC4)nc3)CC2)nc(-c2ccnc3[nH]ccc23)n1 [Compound A12, (R)‐2‐(4‐(2‐fluoro‐5‐((4‐oxo‐3,4‐dihydrophthalazin‐1‐yl)methyl)benzoyl)piperazin‐1‐yl)‐N‐(1‐(6‐(3‐methylmorpholino)‐2‐(1H‐pyrrolo[2,3‐b]pyridin‐4‐yl)pyrimidin‐4‐yl)cyclopropyl)pyrimidine‐5‐carboxamide] | > 50 | 240 ± 10 | 105 ± 7.2 | 1.7 ± 0.2 |  | 
16 | C[C@@H]1COCCN1c1cc(CN)nc(-c2ccnc3[nH]ccc23)n1 [Compound 28] | > 50 | 40800 ± 4450 |  |  | 21.4 | 
